Among the test systems are CAKI-1 renal; HCT-116 colon; K-562 leukemia; MALME-3M melanoma; MDA-MB-435; MOLT-4 leukemia; NCI-H522 lung; OVCAR-8 ovarian; RXF 393 renal; SR leukemia.
What all share (assay): growth of human tumour cells (NCI), 48 h

Where “and” joins values, the source holds several entries; their conditions need not be identical. Equal entries are not always repeated.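 In this assay, cells in 96-well plates receive the compound at five concentrations for 48 hours. Endpoints are linearly interpolated between the surrounding concentrations. At the GI50, growth is halved. TGI denotes the concentration required for complete inhibition of growth.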

As to `O=C(O)c1nnsc1-c1csnn1`, the TGI with CAKI-1 renal, in the experiment on HCT-116 colon, in the experiment on K-562 leukemia, in the experiment on MALME-3M melanoma, with MDA-MB-435 and with MOLT-4 leukemia was above 100 µM in each case. Further, the TGI in the experiment with NCI-H522 lung, in the experiment with OVCAR-8 ovarian, in the experiment on RXF 393 renal and in the experiment on SR leukemia was above 100 µM throughout.

For `CCCC(CCC)Oc1ccc(CCCC2=C(O)c3ccccc3C(=O)C2=O)cc1`, the GI50 in the experiment on CAKI-1 renal was 2.46 µM; in the experiment with HCT-116 colon, 2.17 µM; in the experiment on K-562 leukemia it was 3.31 µM; with MALME-3M melanoma, 7.53 µM; in the experiment on MDA-MB-435, 4.72 µM; with MOLT-4 leukemia, 3.25 µM. The GI50 in the experiment on NCI-H522 lung was 5.75 µM; in the experiment on OVCAR-8 ovarian, 10.2 µM; with RXF 393 renal, 5.75 µM; with SR leukemia it was 3.09 µM. Moreover, the TGI in the experiment with CAKI-1 renal came out at 8.66 µM; in the experiment with HCT-116 colon it was 13.6 µM; in the experiment with K-562 leukemia it was 10.7 µM; with MALME-3M melanoma it was 23.5 µM; in the experiment with MDA-MB-435 it was 17.6 µM; with MOLT-4 leukemia, 11.5 µM. Also, the TGI worked out at 22.2 µM with NCI-H522 lung, 69.7 µM with OVCAR-8 ovarian, 21.5 µM in the experiment with RXF 393 renal and 8.3 µM with SR leukemia.

As for `CN(C)CCCN1c2ccc(O)cc2Sc2ccc(Cl)cc21`, the TGI in the experiment on CAKI-1 renal was determined as 16 µM; in the experiment with HCT-116 colon it was 20.1 µM; in the experiment on K-562 leukemia, 16.8 µM; in the experiment on MALME-3M melanoma, 24 µM; in the experiment on MDA-MB-435, 21.1 µM; in the experiment with MOLT-4 leukemia, 17.5 µM. Further, the TGI with NCI-H522 lung was 25.3 µM; with OVCAR-8 ovarian, 30.5 µM; with RXF 393 renal, 32.6 µM; in the experiment with SR leukemia it was 15.8 µM.

As to `Cc1[nH]c(=O)nc(N/N=C/c2ccc(Cl)cc2)c1C(=O)Nc1ccc(Cl)cc1`, the TGI in the experiment with CAKI-1 renal is above 90.9 µM; in the experiment with HCT-116 colon, 17.1 µM; with K-562 leukemia it was above 85.1 µM; in the experiment with MALME-3M melanoma it was 55.2 µM; in the experiment on MDA-MB-435 it was above 100 µM; with MOLT-4 leukemia, above 91.9 µM. Moreover, the TGI in the experiment with NCI-H522 lung was 64.1 µM; with OVCAR-8 ovarian it was 37.5 µM; in the experiment with RXF 393 renal, 32.9 µM; with SR leukemia it was above 100 µM.

Take `COc1ccc2c(c1)C(=O)c1c-2n(CCCN=[N+]=[N-])c(=O)c2cc(N)ccc12`: the GI50 with CAKI-1 renal, in the experiment with HCT-116 colon, in the experiment on K-562 leukemia, in the experiment on MALME-3M melanoma, in the experiment with MDA-MB-435 and in the experiment with MOLT-4 leukemia was above 100 µM each time. For the same molecule, the GI50 is above 100 µM in the experiment on NCI-H522 lung, above 100 µM in the experiment with OVCAR-8 ovarian, 57.6 µM with RXF 393 renal and 89.6 µM in the experiment with SR leukemia. Further, the TGI in the experiment with CAKI-1 renal, in the experiment with HCT-116 colon, in the experiment with K-562 leukemia, with MALME-3M melanoma, in the experiment on MDA-MB-435 and with MOLT-4 leukemia was above 100 µM throughout. Besides, the TGI in the experiment with NCI-H522 lung, in the experiment on OVCAR-8 ovarian, in the experiment with RXF 393 renal and in the experiment on SR leukemia was above 100 µM in each case.

For the molecule `CNC12C3C4C1C1C2C3C41C(=O)N[C@H](C(=O)N(C)[C@H](C[C@@H](OC(C)=O)c1nc(C(=O)N[C@@H](Cc2ccccc2)C[C@H](C)C(=O)OC)cs1)C(C)C)C1CC1` (stereo partly drawn), the GI50 is 2.73 µM in the experiment with CAKI-1 renal; 0.215 µM in the experiment with HCT-116 colon; 0.0667 µM with K-562 leukemia; 0.504 µM in the experiment on MALME-3M melanoma; 0.0467 µM in the experiment with MDA-MB-435; 0.467 µM with MOLT-4 leukemia. For the same molecule, the GI50 with NCI-H522 lung is 0.041 µM; with OVCAR-8 ovarian, 0.523 µM; in the experiment on RXF 393 renal it was 0.213 µM; in the experiment on SR leukemia it was 0.0179 µM. Further, the TGI is above 15 µM with CAKI-1 renal; above 4.1 µM in the experiment on HCT-116 colon; above 15 µM with K-562 leukemia; above 15 µM in the experiment with MALME-3M melanoma; 0.32 µM in the experiment with MDA-MB-435; above 13.6 µM in the experiment on MOLT-4 leukemia. Further, the TGI with NCI-H522 lung is 0.524 µM; in the experiment on OVCAR-8 ovarian, above 15 µM; in the experiment with RXF 393 renal it was 1.33 µM; in the experiment with SR leukemia, above 7.82 µM.

Consider `CCOC(=O)C(O)Cc1cnc2ccccc2n1` (stereo not drawn), for which the TGI with CAKI-1 renal, in the experiment with HCT-116 colon, in the experiment with K-562 leukemia, in the experiment with MALME-3M melanoma, in the experiment on MDA-MB-435 and with MOLT-4 leukemia was above 100 µM each time. In addition, the TGI in the experiment with NCI-H522 lung, with OVCAR-8 ovarian, in the experiment on RXF 393 renal and in the experiment on SR leukemia was above 100 µM throughout.

In the case of `Clc1ccc(N/N=C(\c2ccccc2)c2ccccn2)nc1`, the GI50 is 0.172 µM in the experiment with CAKI-1 renal; 0.0313 µM in the experiment with HCT-116 colon; 0.0406 µM in the experiment on K-562 leukemia; 0.0904 µM in the experiment with MALME-3M melanoma; 0.42 µM with MDA-MB-435; 0.0367 µM in the experiment with MOLT-4 leukemia. The GI50 with NCI-H522 lung is 0.0805 µM; in the experiment on OVCAR-8 ovarian, 0.276 µM; in the experiment with RXF 393 renal, 0.275 µM; in the experiment on SR leukemia, 0.0769 µM. For the same molecule, the TGI was 2.3 µM and 16.7 µM with CAKI-1 renal; 10.6 µM and 11.1 µM in the experiment on HCT-116 colon; above 100 µM with K-562 leukemia; 72.2 µM and 25.7 µM with MALME-3M melanoma; above 55.9 µM with MDA-MB-435; 2.77 µM in the experiment with NCI-H522 lung. Moreover, the TGI is 7.38 µM and 28.5 µM with RXF 393 renal; 3.5 µM in the experiment on SR leukemia.

In the case of `CC(=O)[O][Hg][CH2]C1(C)COC(C)([CH2][Hg][O]C(C)=O)CO1` (stereo not drawn), the GI50 in the experiment on CAKI-1 renal is 0.805 µM; with HCT-116 colon it was 1.22 µM; in the experiment with K-562 leukemia, 0.607 µM; with MALME-3M melanoma it was 4.66 µM; with MDA-MB-435, 2.72 µM; with MOLT-4 leukemia, 0.747 µM. For the same molecule, the GI50 is 12.1 µM with NCI-H522 lung, 6.03 µM with OVCAR-8 ovarian, 1.45 µM with RXF 393 renal and 0.607 µM in the experiment with SR leukemia. In addition, the TGI came to 2.42 µM in the experiment with CAKI-1 renal; 6.58 µM in the experiment on HCT-116 colon; 2.71 µM in the experiment on K-562 leukemia; 9.23 µM with MALME-3M melanoma; 7.18 µM in the experiment with MDA-MB-435; 3.14 µM in the experiment with MOLT-4 leukemia. Further, the TGI was determined as 33 µM with NCI-H522 lung, 52.1 µM with OVCAR-8 ovarian, 7.08 µM in the experiment on RXF 393 renal and 3.59 µM with SR leukemia.
